Among the data in US10954197B2, “Cathepsin-D and angiogenesis inhibitors and compositions thereof for treating breast cancer” (YOGEE'S BIOINNOVATIONS PRIVATE LIMITED, priority 2017, dated 2021) are melting point values, retold here.

A word on the melting point: it is the temperature, or range, at which the solid turns liquid.

Consider `COc1ccc(NC(=O)CSc2n[nH]c(CNc3ccccc3)n2)cc1` [Example 12, N-(4-methoxyphenyl)-2-((5-((phenylamino)methyl)-1H-1,2,4-triazol-3-yl)thio)acetamide], for which the melting point lay in the range of 40 to 42 °C.
As for `Cc1cccc(NCc2nc(SCC(=O)Nc3cc(C(F)(F)F)ccc3Cl)n[nH]2)c1` [Example 8, N-(2-chloro-5-(trifluoromethyl)phenyl)-2-((5-((m-tolylamino)methyl)-1H-1,2,4-triazol-3-yl)thio)acetamide], the figure is 40 to 42 °C; as for `COc1ccc(NC(=O)CSc2n[nH]c(CNc3cccc(C)c3)n2)cc1` [Example 5, N-(4-methoxyphenyl)-2-((5-((m-tolylamino)methyl)-1H-1,2,4-triazol-3-yl)thio)acetamide], 40 to 42 °C; as for `CC(=O)c1cccc(NC(=O)CSc2n[nH]c(NC(=S)NCc3ccccc3)n2)c1` [Example 18, N-(3-acetylphenyl)-2-((5-(3-benzylthioureido)-1H-1,2,4-triazol-3-yl)thio)acetamide], 40 to 42 °C.
As for `O=C(CSc1n[nH]c(NC(=O)NCc2ccccc2)n1)Nc1ccc([N+](=O)[O-])cc1` [Example 19, 2-((5-(3-benzylureido)-1H-1,2,4-triazol-3-yl)thio)-N-(4-nitrophenyl)acetamide], the figure is 40 to 42 °C; as for `Cc1cccc(NCc2nc(SCC(=O)Nc3ccc(Cl)c(Cl)c3)n[nH]2)c1` [Example 6, N-(3,4-dichlorophenyl)-2-((5-((m-tolylamino)methyl)-1H-1,2,4-triazol-3-yl)thio)acetamide], 40 to 42 °C.
As for `COc1cc(NC(=O)CSc2n[nH]c(CNc3ccccc3)n2)cc(OC)c1` [Example 14, N-(3,5-dimethoxyphenyl)-2-((5-((phenylamino)methyl)-1H-1,2,4-triazol-3-yl)thio)acetamide], the figure is 40 to 42 °C.
With `Cc1cccc(NCc2nc(SCC(=O)Nc3ccccc3)n[nH]2)c1` [Example 2, N-Phenyl-2-((5-((m-tolylamino)methyl)-1H-1,2,4-triazol-3-yl)thio)acetamide], the melting point lay in the range of 40 to 42 °C.
As for `CC(=O)c1cccc(NC(=O)CSc2n[nH]c(NC(=O)NCc3ccccc3)n2)c1` [Example 20, N-(3-acetylphenyl)-2-((5-(3-benzylureido)-1H-1,2,4-triazol-3-yl)thio)acetamide], the figure is 40 to 42 °C; as for `COc1cc(NC(=O)CSc2n[nH]c(CNc3cccc(C)c3)n2)cc(OC)c1` [Example 7, N-(3,5-dimethoxyphenyl)-2-((5-((m-tolylamino)methyl)-1H-1,2,4-triazol-3-yl)thio)acetamide], 40 to 42 °C.
As for `O=C(CSc1n[nH]c(CNc2ccccc2)n1)Nc1cccc(Br)c1` [Example 11, N-(3-bromophenyl)-2-((5-((phenylamino)methyl)-1H-1,2,4-triazol-3-yl)thio)acetamide], the figure is 40 to 42 °C; as for `COc1ccc(Cl)cc1NC(=O)CSc1n[nH]c(CNc2cccc(C)c2)n1` [Example 1, N-(5-chloro-2-methoxyphenyl)-2-((5-((m-tolylamino)methyl)-1H-1,2,4-triazol-3-yl)thio)acetamide], 40 to 42 °C; as for `Cc1cccc(NCc2nc(SCC(=O)Nc3cccc(F)c3)n[nH]2)c1` [Example 3, N-(3-fluorophenyl)-2-((5-((m-tolylamino)methyl)-1H-1,2,4-triazol-3-yl)thio)acetamide], 40 to 42 °C.
Next, `O=C(CSc1n[nH]c(CNc2ccccc2)n1)Nc1cccc(F)c1` [Example 10, N-(3-fluorophenyl)-2-((5-((phenylamino)methyl)-1H-1,2,4-triazol-3-yl)thio)acetamide]: 40 to 42 °C.
As for `O=C(CSc1n[nH]c(CNc2ccccc2)n1)Nc1ccc(Cl)c(Cl)c1` [Example 13, N-(3,4-dichlorophenyl)-2-((5-((phenylamino)methyl)-1H-1,2,4-triazol-3-yl)thio)acetamide], the melting point lay in the range of 40 to 42 °C.
As for `O=C(CSc1n[nH]c(CNc2ccccc2)n1)Nc1ccccc1` [Example 9, N-phenyl-2-((5-((phenylamino)methyl)-1H-1,2,4-triazol-3-yl)thio)acetamide], the figure is 40 to 42 °C; as for `Cc1cc([N+](=O)[O-])ccc1NC(=O)CSc1n[nH]c(NC(=O)NCc2ccccc2)n1` [Example 21, 2-((5-(3-benzylureido)-1H-1,2,4-triazol-3-yl)thio)-N-(2-methyl-4-nitrophenyl)acetamide], 40 to 42 °C.
